Literature values as cited in patent US11752152B1, “Pharmaceutical formulations of imatinib and uses thereof” (Exvastat Ltd, priority 2022, dated 2023).

Test system: animal models of sepsis, acute lung injury and impaired microcirculatory perfusion
Conditions: variety of animal models

Cc1ccc(NC(=O)c2ccc(CN3CCN(C)CC3)cc2)cc1Nc1nccc(-c2cccnc2)n1 [Imatinib, 4-[(4-methylpiperazin-1-yl)methyl]-N-[4-methyl-3-[(4-pyridin-3-ylpyrimidin-2-yl)amino]phenyl]benzamide]
effect on endothelial barrier, vascular leak and inflammation: protect the endothelial barrier, prevent vascular leak and reduce inflammation
